Laboratory results from ChEMBL document CHEMBL3301472, “MMV Malaria Box HIV and cytotoxicity screening”.

Columns and labels:
Type in all cases: toxicity, cell-based
[1] = MMV: MTT Cytotoxicity Assay Day 7 pi of Assay #6 (compound washed out Day 1 pi), U87-CD4-CCR5 cells, % cell death @ 5mM compound; conditions: human, u87-cd4-ccr5, 5000 µM
[2] = MMV: MTT Cytotoxicity Assay Day 7 pi of Assay #7 (compound washed out Day 1 pi), U87-CD4-CXCR4 cells, % cell death @ 5mM compound; conditions: human, u87-cd4-cxcr4, 5000 µM
[3] = MMV: MTT Cytotoxicity Assay Day 3 pi, U87-CD4-CXCR4 cells, % cell death @ 5mM compound; conditions: human, u87-cd4-cxcr4, 5000 µM
[4] = MMV: MTT Cytotoxicity Assay Day 7 pi of Assay #10 (NO washout), U87-CD4-CCR5 cells, % cell death @ 5mM compound; conditions: human, u87-cd4-ccr5, 5000 µM
[5] = MMV: MTT Cytotoxicity Assay Day 3 pi, U87-CD4-CCR5 cells, % cell death @ 5mM compound; conditions: human, u87-cd4-ccr5, 5000 µM
[6] = MMV: MTT Cytotoxicity Assay Day 7 pi of Assay #11 (NO washout), U87-CD4-CXCR4 cells, % cell death @ 5mM compound; conditions: human, u87-cd4-cxcr4, 5000 µM

O=C(NCCCN1CCC(N2CCCCC2)CC1)C1=Cc2cc(Br)ccc2OC1
% Cell Death [1]: 31
% Cell Death [2]: -28
% Cell Death [3]: 10
% Cell Death [4]: 14
% Cell Death [5]: 52
% Cell Death [6]: -57

CCOc1ccc(C2N(C)c3ccccc3N2C)cc1
% Cell Death [1]: 105
% Cell Death [2]: 98
% Cell Death [3]: 79
% Cell Death [4]: 115
% Cell Death [5]: 92
% Cell Death [6]: 100

CC1CCCCN1CCCNC(=O)c1ccc2c(c1)sc1nc(-c3ccc(F)cc3)cn12 (centres undefined)
% Cell Death [1]: 29
% Cell Death [2]: -50
% Cell Death [3]: 0
% Cell Death [4]: -20
% Cell Death [5]: -29
% Cell Death [6]: 61

Cc1ccc2nc(C)cc(Nc3cccc(C(F)(F)F)c3)c2c1.Cl
% Cell Death [1]: 15
% Cell Death [2]: -9
% Cell Death [3]: 38
% Cell Death [4]: 72
% Cell Death [5]: -13
% Cell Death [6]: 44

CCCCc1ccc(NS(=O)(=O)c2cc3c4c(c2)CCN4C(=O)CC3)cc1
% Cell Death [1]: 47
% Cell Death [2]: 1
% Cell Death [3]: 20
% Cell Death [4]: 85
% Cell Death [5]: 6
% Cell Death [6]: 93

CCOc1ccc(/C=C/c2nc(=O)c3ccccc3o2)cc1
% Cell Death [1]: 27
% Cell Death [2]: -27
% Cell Death [3]: 31
% Cell Death [4]: 21
% Cell Death [5]: 41
% Cell Death [6]: 10

Cl.Cn1c(=O)n(C)c2cc(CNCCNc3ccnc4cc(Cl)ccc34)ccc21
% Cell Death [1]: 34
% Cell Death [2]: 31
% Cell Death [3]: 65
% Cell Death [4]: 23
% Cell Death [5]: 46
% Cell Death [6]: 45

O=C(Nc1ccc(Cl)cc1)N1CCN(c2ccc3nncn3n2)CC1
% Cell Death [1]: 83
% Cell Death [2]: 87
% Cell Death [3]: 22
% Cell Death [4]: 92
% Cell Death [5]: 108
% Cell Death [6]: 98

COc1cc(C(=O)ON=C(N)Cc2cccc3ccccc23)cc(OC)c1OC
% Cell Death [1]: -13
% Cell Death [2]: 4
% Cell Death [3]: 32
% Cell Death [4]: 100
% Cell Death [5]: 14
% Cell Death [6]: -15

CC(C)c1ccc(CNCC(O)c2ccccc2)cc1.Cl (centres undefined)
% Cell Death [1]: -1
% Cell Death [2]: -18
% Cell Death [3]: 29
% Cell Death [4]: 14
% Cell Death [5]: -53
% Cell Death [6]: 3

CCN(CC)CCNc1ncnc2c1[nH]c1ccc(Cl)cc12
% Cell Death [1]: 1
% Cell Death [2]: -31
% Cell Death [3]: 30
% Cell Death [4]: 5
% Cell Death [5]: 15
% Cell Death [6]: -1

O=C(CCc1ccccc1)c1ccccc1OCC(O)CN1CCCCC1 (centres undefined)
% Cell Death [1]: 12
% Cell Death [2]: 77
% Cell Death [3]: 44
% Cell Death [4]: 136
% Cell Death [5]: 53
% Cell Death [6]: 93

Cl.N=c1n(CCN2CCCCC2)c2ccccc2n1CC(O)c1cccc(Br)c1 (centres undefined)
% Cell Death [1]: 10
% Cell Death [2]: -20
% Cell Death [3]: 27
% Cell Death [4]: 11
% Cell Death [5]: 2
% Cell Death [6]: 8

COc1ccc(C2C(C(=O)Nc3cccc(OC)c3)c3ccccc3C(=O)N2C2CCCCC2)cc1 (centres undefined)
% Cell Death [1]: 18
% Cell Death [2]: 22
% Cell Death [3]: 15
% Cell Death [4]: -8
% Cell Death [5]: -65
% Cell Death [6]: 37

O=C(Nc1cccc(-c2nc3ccccc3[nH]2)c1)c1cccc(NC(=O)c2ccco2)c1
% Cell Death [1]: 11
% Cell Death [2]: -31
% Cell Death [3]: 22
% Cell Death [4]: 20
% Cell Death [5]: -8
% Cell Death [6]: -18

O=C(Nc1ccc(Cl)cc1C(=O)Nc1ccncc1)c1ccc(Cl)cc1Cl
% Cell Death [1]: 50
% Cell Death [2]: 75
% Cell Death [3]: 21
% Cell Death [4]: 15
% Cell Death [5]: 0
% Cell Death [6]: 87

OC1=C2C(=Nc3ccccc3SC2c2ccccc2)c2ccccc21 (centres undefined)
% Cell Death [1]: -22
% Cell Death [2]: 24
% Cell Death [3]: 20
% Cell Death [4]: -15
% Cell Death [5]: 37
% Cell Death [6]: -20

CCOc1ccc(CCNC(=O)c2cccs2)cc1OCC
% Cell Death [1]: -20
% Cell Death [2]: -3
% Cell Death [3]: 30
% Cell Death [4]: 2
% Cell Death [5]: 45
% Cell Death [6]: -9

COc1cc(OC)cc(N2C(=O)N(Cc3ccc(C(C)(C)C)cc3)c3ccccc3S2(=O)=O)c1
% Cell Death [1]: 34
% Cell Death [2]: -10
% Cell Death [3]: 36
% Cell Death [4]: 39
% Cell Death [5]: 34
% Cell Death [6]: 64

COc1cc2c(cc1OC)C1=NNC(=O)C1=NC(C)(C)C2
% Cell Death [1]: 101
% Cell Death [2]: 95
% Cell Death [3]: 100
% Cell Death [4]: 106
% Cell Death [5]: 107
% Cell Death [6]: 98

O=C(CSc1ccc2nnc(-c3cccc(F)c3)n2n1)Nc1ccc2c(c1)OCO2
% Cell Death [1]: 63
% Cell Death [2]: 48
% Cell Death [3]: 54
% Cell Death [4]: 94
% Cell Death [5]: 82
% Cell Death [6]: 100

Cc1cc(Nc2ccc(C)c(Cl)c2)n2nc(C(F)(F)F)nc2n1
% Cell Death [1]: -35
% Cell Death [2]: -28
% Cell Death [3]: 28
% Cell Death [4]: 42
% Cell Death [5]: 11
% Cell Death [6]: 10

O=C(CCl)NCCOc1ccc(Cl)cc1Cl
% Cell Death [1]: -19
% Cell Death [2]: -8
% Cell Death [3]: 28
% Cell Death [4]: 12
% Cell Death [5]: 15
% Cell Death [6]: 6

COc1ccc(CNC2CCN(c3ccc(NC(=O)c4cccc(Cl)c4)cc3)CC2)cc1OC
% Cell Death [1]: 28
% Cell Death [2]: -21
% Cell Death [3]: -2
% Cell Death [4]: 11
% Cell Death [5]: -8
% Cell Death [6]: -37

COc1ccc(N2CCN(C(CNC(=O)CC(C)(C)C)c3ccc4c(c3)OCO4)CC2)cc1 (centres undefined)
% Cell Death [1]: 6
% Cell Death [2]: 22
% Cell Death [3]: 38
% Cell Death [4]: 44
% Cell Death [5]: -2
% Cell Death [6]: 37

CCCCOc1ccc(C(=O)Nc2cc(C)on2)cc1
% Cell Death [1]: -17
% Cell Death [2]: -14
% Cell Death [3]: 31
% Cell Death [4]: 4
% Cell Death [5]: 54
% Cell Death [6]: 33

CCCCNCC(O)(c1ccc(Cl)cc1)c1ccc(Cl)cc1
% Cell Death [1]: 23
% Cell Death [2]: -18
% Cell Death [3]: 29
% Cell Death [4]: 11
% Cell Death [5]: 16
% Cell Death [6]: 27

CCOC(=O)c1c(C)n(-c2ccccc2)c2ccc(OC(=O)c3cc(OC)c(OC)c(OC)c3)cc12
% Cell Death [1]: -12
% Cell Death [2]: 2
% Cell Death [3]: 34
% Cell Death [4]: 12
% Cell Death [5]: -4
% Cell Death [6]: -19

CCCN(CCC)CC(O)COc1ccccc1C(=O)Nc1ccccc1 (centres undefined)
% Cell Death [1]: -14
% Cell Death [2]: 14
% Cell Death [3]: 22
% Cell Death [4]: 34
% Cell Death [5]: 33
% Cell Death [6]: -27

COc1ccc(-c2cn3c(C(=O)Nc4ccccc4Cl)c(-c4ccccc4)c4c3n2CCCC4)cc1
% Cell Death [1]: -4
% Cell Death [2]: -5
% Cell Death [3]: 35
% Cell Death [4]: 30
% Cell Death [5]: -20
% Cell Death [6]: -35

Cc1ccc(-c2cc3c(SCC(=O)Nc4cc(C(F)(F)F)ccc4Cl)nccn3n2)cc1
% Cell Death [1]: 12
% Cell Death [2]: -26
% Cell Death [3]: 35
% Cell Death [4]: 24
% Cell Death [5]: 18
% Cell Death [6]: 2

O=C(Nc1ccc(N2CCCCC2)c(Cl)c1)c1ccc(Br)o1
% Cell Death [1]: 26
% Cell Death [2]: 53
% Cell Death [3]: 61
% Cell Death [4]: 76
% Cell Death [5]: 97
% Cell Death [6]: 99

COc1ccc2nc(C)cc(Nc3ccc(Cl)cc3)c2c1
% Cell Death [1]: 103
% Cell Death [2]: 90
% Cell Death [3]: 100
% Cell Death [4]: 121
% Cell Death [5]: 106
% Cell Death [6]: 117

O=C(Nc1cccc(C(F)(F)F)c1)c1cc(Cl)ccc1O
% Cell Death [1]: 100
% Cell Death [2]: 97
% Cell Death [3]: 70
% Cell Death [4]: 124
% Cell Death [5]: 95
% Cell Death [6]: 95

COc1cccc(C(=O)NC(c2ccc(C)cc2)c2cc(Cl)c3cccnc3c2O)c1 (centres undefined)
% Cell Death [1]: 23
% Cell Death [2]: -4
% Cell Death [3]: 68
% Cell Death [4]: 26
% Cell Death [5]: 88
% Cell Death [6]: -24

CCCCCCc1cc2cc(-c3csc(C=Cc4ccccc4)n3)c(=O)oc2cc1O
% Cell Death [1]: -23
% Cell Death [2]: -39
% Cell Death [3]: 41
% Cell Death [4]: 24
% Cell Death [5]: 35
% Cell Death [6]: -36

COc1ccc(-c2nonc2NC(=O)c2cccc(C)c2)cc1OC
% Cell Death [1]: -21
% Cell Death [2]: -11
% Cell Death [3]: 11
% Cell Death [4]: -7
% Cell Death [5]: 13
% Cell Death [6]: -3

O=C(Nc1ccc(-c2nc3cc(NC(=O)c4ccc(Cl)cc4)ccc3[nH]2)cc1)c1ccc(Cl)cc1
% Cell Death [1]: -14
% Cell Death [2]: -23
% Cell Death [3]: 37
% Cell Death [4]: -18
% Cell Death [5]: -28
% Cell Death [6]: -10

COc1ccc2c(c1)OC(O)(C(F)(F)C(F)(F)F)CC2=O (centres undefined)
% Cell Death [1]: 37
% Cell Death [2]: 4
% Cell Death [3]: 47
% Cell Death [4]: 62
% Cell Death [5]: 42
% Cell Death [6]: 88
